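Assay format: 96-well plates, 48-hour exposure. GI50 is the concentration that inhibits growth by half. TGI: concentration producing complete growth inhibition.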
Assays:
Test in all cases: NCI-60 cell line screen, 48 h
COLO 205 colon = system: COLO 205 colon
SN12C renal = system: SN12C renal
OVCAR-8 ovarian = system: OVCAR-8 ovarian
U251 CNS = system: U251 CNS
786-0 renal = system: 786-0 renal
SF-268 CNS = system: SF-268 CNS
OVCAR-3 ovarian = system: OVCAR-3 ovarian
SW-620 colon = system: SW-620 colon
DU-145 prostate = system: DU-145 prostate
MALME-3M melanoma = system: MALME-3M melanoma
NCI-H23 lung = system: NCI-H23 lung
OVCAR-4 ovarian = system: OVCAR-4 ovarian
SNB-19 CNS = system: SNB-19 CNS
HOP-92 NSCLC = system: HOP-92 NSCLC
K-562 leukemia = system: K-562 leukemia
LOX IMVI melanoma = system: LOX IMVI melanoma
PC-3 prostate = system: PC-3 prostate
A549 NSCLC = system: A549 NSCLC
OVCAR-5 ovarian = system: OVCAR-5 ovarian
CAKI-1 renal = system: CAKI-1 renal
MDA-MB-231 breast = system: MDA-MB-231 breast
SK-MEL-2 melanoma = system: SK-MEL-2 melanoma
MOLT-4 leukemia = system: MOLT-4 leukemia
HCC-2998 colon = system: HCC-2998 colon
TK-10 renal = system: TK-10 renal
T-47D breast = system: T-47D breast
UO-31 renal = system: UO-31 renal
NCI-H522 lung = system: NCI-H522 lung
SR leukemia = system: SR leukemia
UACC-257 melanoma = system: UACC-257 melanoma
HCT-15 colon = system: HCT-15 colon
BT-549 breast = system: BT-549 breast
UACC-62 melanoma = system: UACC-62 melanoma
RXF 393 renal = system: RXF 393 renal
EKVX NSCLC = system: EKVX NSCLC
SNB-75 CNS = system: SNB-75 CNS
NCI-H460 lung = system: NCI-H460 lung
SK-OV-3 ovarian = system: SK-OV-3 ovarian
SK-MEL-28 melanoma = system: SK-MEL-28 melanoma
HS 578T breast = system: HS 578T breast
SF-295 CNS = system: SF-295 CNS
KM12 colon = system: KM12 colon
HT29 colon = system: HT29 colon
NCI/ADR-RES ovarian = system: NCI/ADR-RES ovarian
ACHN renal = system: ACHN renal
HL-60(TB) leukemia = system: HL-60(TB) leukemia
SF-539 CNS = system: SF-539 CNS
CCRF-CEM leukemia = system: CCRF-CEM leukemia
MCF7 breast = system: MCF7 breast
IGROV1 ovarian = system: IGROV1 ovarian
MDA-MB-435 = system: MDA-MB-435
SK-MEL-5 melanoma = system: SK-MEL-5 melanoma
RPMI-8226 leukemia = system: RPMI-8226 leukemia
NCI-H226 lung = system: NCI-H226 lung
A498 renal = system: A498 renal
HCT-116 colon = system: HCT-116 colon
HOP-62 NSCLC = system: HOP-62 NSCLC

CCN(CC)c1ccc2c(cc1=O)[C@@H](NC(C)=O)CCc1cc(OC)c(OC)c(OC)c1-2
GI50 (COLO 205 colon): 101 nM | TGI (COLO 205 colon): 500 nM | GI50 (SN12C renal): 691 nM | TGI (SN12C renal): > 100000 nM | GI50 (OVCAR-8 ovarian): 467 nM | TGI (OVCAR-8 ovarian): > 100000 nM | GI50 (U251 CNS): 407 nM | TGI (U251 CNS): > 100000 nM | GI50 (786-0 renal): 622 nM | TGI (786-0 renal): > 100000 nM | GI50 (SF-268 CNS): 511 nM | TGI (SF-268 CNS): > 100000 nM | GI50 (OVCAR-3 ovarian): 250 nM | TGI (OVCAR-3 ovarian): 647 nM | GI50 (SW-620 colon): 287 nM | TGI (SW-620 colon): > 100000 nM | GI50 (DU-145 prostate): 368 nM | GI50 (MALME-3M melanoma): > 100000 nM | TGI (MALME-3M melanoma): > 100000 nM | GI50 (NCI-H23 lung): 578 nM | TGI (NCI-H23 lung): > 100000 nM | GI50 (OVCAR-4 ovarian): 3320 nM | TGI (OVCAR-4 ovarian): > 100000 nM | GI50 (SNB-19 CNS): 409 nM | TGI (SNB-19 CNS): > 100000 nM | GI50 (HOP-92 NSCLC): 7110 nM | TGI (HOP-92 NSCLC): > 100000 nM | GI50 (K-562 leukemia): 224 nM | TGI (K-562 leukemia): > 100000 nM | GI50 (LOX IMVI melanoma): 345 nM | TGI (LOX IMVI melanoma): > 100000 nM | GI50 (PC-3 prostate): 366 nM | TGI (PC-3 prostate): > 100000 nM | GI50 (A549 NSCLC): 744 nM | TGI (A549 NSCLC): > 100000 nM | GI50 (OVCAR-5 ovarian): 2450 nM | TGI (OVCAR-5 ovarian): > 100000 nM | GI50 (CAKI-1 renal): 4620 nM | TGI (CAKI-1 renal): > 100000 nM | GI50 (MDA-MB-231 breast): 552 nM | TGI (MDA-MB-231 breast): > 100000 nM | GI50 (SK-MEL-2 melanoma): 275 nM | TGI (SK-MEL-2 melanoma): > 100000 nM | GI50 (MOLT-4 leukemia): 511 nM | TGI (MOLT-4 leukemia): > 100000 nM | GI50 (HCC-2998 colon): 347 nM | TGI (HCC-2998 colon): > 100000 nM | GI50 (TK-10 renal): 65200 nM | TGI (TK-10 renal): > 100000 nM | GI50 (T-47D breast): > 100000 nM | TGI (T-47D breast): > 100000 nM | GI50 (UO-31 renal): 6720 nM | TGI (UO-31 renal): > 100000 nM | GI50 (NCI-H522 lung): 218 nM | TGI (NCI-H522 lung): 579 nM | GI50 (SR leukemia): 52.9 nM | TGI (SR leukemia): > 100000 nM | GI50 (UACC-257 melanoma): > 100000 nM | TGI (UACC-257 melanoma): > 100000 nM | GI50 (HCT-15 colon): 2640 nM | TGI (HCT-15 colon): > 100000 nM | GI50 (BT-549 breast): 245 nM | TGI (BT-549 breast): 7280 nM | GI50 (UACC-62 melanoma): 311 nM | TGI (UACC-62 melanoma): > 100000 nM | GI50 (RXF 393 renal): 381 nM | TGI (RXF 393 renal): > 100000 nM | GI50 (EKVX NSCLC): 714 nM | TGI (EKVX NSCLC): > 100000 nM | GI50 (SNB-75 CNS): 321 nM | TGI (SNB-75 CNS): > 100000 nM | GI50 (NCI-H460 lung): 359 nM | TGI (NCI-H460 lung): > 100000 nM | GI50 (SK-OV-3 ovarian): 407 nM | TGI (SK-OV-3 ovarian): > 100000 nM | GI50 (SK-MEL-28 melanoma): > 100000 nM | TGI (SK-MEL-28 melanoma): > 100000 nM | GI50 (HS 578T breast): 648 nM | TGI (HS 578T breast): > 100000 nM | GI50 (SF-295 CNS): 277 nM | TGI (SF-295 CNS): > 100000 nM | GI50 (KM12 colon): 282 nM | TGI (KM12 colon): > 100000 nM | GI50 (HT29 colon): 331 nM | GI50 (NCI/ADR-RES ovarian): 14300 nM | TGI (NCI/ADR-RES ovarian): > 100000 nM | GI50 (ACHN renal): 2620 nM | TGI (ACHN renal): > 100000 nM | GI50 (HL-60(TB) leukemia): 63.3 nM | TGI (HL-60(TB) leukemia): 319 nM | GI50 (SF-539 CNS): 217 nM | GI50 (CCRF-CEM leukemia): 213 nM | TGI (CCRF-CEM leukemia): > 100000 nM | GI50 (MCF7 breast): 148 nM | TGI (MCF7 breast): > 100000 nM | GI50 (IGROV1 ovarian): 510 nM | TGI (IGROV1 ovarian): > 100000 nM | GI50 (MDA-MB-435): 59.4 nM | TGI (MDA-MB-435): 305 nM | GI50 (SK-MEL-5 melanoma): 302 nM | TGI (SK-MEL-5 melanoma): 1560 nM | GI50 (RPMI-8226 leukemia): 288 nM | TGI (RPMI-8226 leukemia): > 100000 nM | GI50 (NCI-H226 lung): 409 nM | TGI (NCI-H226 lung): > 100000 nM | GI50 (A498 renal): 260 nM | GI50 (HCT-116 colon): 205 nM | TGI (HCT-116 colon): > 100000 nM | GI50 (HOP-62 NSCLC): 563 nM | TGI (HOP-62 NSCLC): > 100000 nM

Source: PubChem BioAssay (NCI)
